Test results from PubChem BioAssay AID248 (DTP/NCI, 2004).
Several values for one entry are separate records, joined by “and”; a condition that tells them apart may be missing. Equal entries are not always repeated. Inconclusive results and toxic doses are left out. No stated cut-off is given here; in the data, active means T/C of 150% or more; inactive means T/C below 125%.

Tested on: L1210 leukemia ip in BDF1 mice, survival T/C
Assay: NCI In Vivo Anticancer Drug Screen. Data for tumor model L1210 Leukemia (intraperitoneal) in B6D2F1 (BDF1) mice
Conditions: endpoint: mean survival time, higher = longer survival
How it was run: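 Tumor was transplanted into mice, which were then dosed with test compound or vehicle alone. Survival was recorded for each group, and the treated figure was expressed relative to the control figure.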

[1] = dose: 100.0 mg/kg/injection, schedule: Q01DX009 (ip), vehicle: Klucel (hydroxypropylcellulose) (HPC)
[2] = dose: 100.0 mg/kg/injection, schedule: Q04DX003 (ip), vehicle: Klucel (hydroxypropylcellulose) (HPC)
[3] = dose: 200.0 mg/kg/injection, schedule: Q01DX009 (ip), vehicle: Klucel (hydroxypropylcellulose) (HPC)
[4] = dose: 200.0 mg/kg/injection, schedule: Q04DX003 (ip), vehicle: Klucel (hydroxypropylcellulose) (HPC)
[5] = dose: 400.0 mg/kg/injection, schedule: Q01DX009 (ip), vehicle: Klucel (hydroxypropylcellulose) (HPC)
[6] = dose: 400.0 mg/kg/injection, schedule: Q04DX003 (ip), vehicle: Klucel (hydroxypropylcellulose) (HPC)
[7] = dose: 50.0 mg/kg/injection, schedule: Q01DX009 (ip), vehicle: saline with Tween-80
[8] = dose: 100.0 mg/kg/injection, schedule: Q01DX009 (ip), vehicle: saline with Tween-80
[9] = dose: 100.0 mg/kg/injection, schedule: Q04DX003 (ip), vehicle: saline with Tween-80
[10] = dose: 200.0 mg/kg/injection, schedule: Q04DX003 (ip), vehicle: saline with Tween-80
[11] = dose: 75.0 mg/kg/injection, schedule: Q01DX001 (ip), vehicle: other
[12] = dose: 150.0 mg/kg/injection, schedule: Q01DX001 (ip), vehicle: other
[13] = dose: 100.0 mg/kg/injection, schedule: Q01DX009 (ip), vehicle: saline
[14] = dose: 200.0 mg/kg/injection, schedule: Q01DX009 (ip), vehicle: saline
[15] = dose: 25.0 mg/kg/injection, schedule: Q01DX009 (ip), vehicle: saline with Tween-80

Measured: T/C

O=C(COc1ccc(Cl)c(Cl)c1)N(Cc1ccccc1)Cc1cccnc1
inactive: dose: 100.0 mg/kg/injection, schedule: Q01DX001 (ip), vehicle: Klucel (hydroxypropylcellulose) (HPC) 99 % of control | [1] 98 % of control | [2] 100 % of control | dose: 200.0 mg/kg/injection, schedule: Q01DX001 (ip), vehicle: Klucel (hydroxypropylcellulose) (HPC) 96 % of control | [3] 116 % of control | [4] 96 % of control | dose: 400.0 mg/kg/injection, schedule: Q01DX001 (ip), vehicle: Klucel (hydroxypropylcellulose) (HPC) 96 % of control | [5] 100 % of control | [6] 98 % of control

COc1ccc(C2c3cc(OC)c(OC)cc3CC3C(=O)OCC32)cc1OC (stereo not given)
inactive: [2] 98 % of control | [4] 93 % of control | [6] 93 % of control

CC1CCc2c(O)ccc(O)c21 (stereo not given)
inactive: dose: 100.0 mg/kg/injection, schedule: Q01DX001 (ip), vehicle: carboxymethylcellulose (CMC) 102 % of control | dose: 200.0 mg/kg/injection, schedule: Q01DX001 (ip), vehicle: carboxymethylcellulose (CMC) 96 % of control | dose: 400.0 mg/kg/injection, schedule: Q01DX001 (ip), vehicle: carboxymethylcellulose (CMC) 94 % of control

C1CN2CCC1CC2
inactive: dose: 10.0 mg/kg/injection, schedule: Q01DX001 (ip), vehicle: saline 93 % of control | [7] 98 % of control | [8] 97 % of control | [9] 106 % of control | [10] 93 % of control

CN1CCC(=O)c2ccccc21
inactive: [11] 97 % of control | [12] 100 % of control | dose: 300.0 mg/kg/injection, schedule: Q01DX001 (ip), vehicle: other 100 % of control

OCCNC(=S)Nc1cccc(C(F)(F)F)c1
inactive: [8] 100 % of control | dose: 100.0 mg/kg/injection, schedule: Q04DX002 (ip), vehicle: saline with Tween-80 91 % of control | dose: 200.0 mg/kg/injection, schedule: Q01DX009 (ip), vehicle: saline with Tween-80 97 % of control | dose: 200.0 mg/kg/injection, schedule: Q04DX002 (ip), vehicle: saline with Tween-80 98 % of control | dose: 400.0 mg/kg/injection, schedule: Q04DX002 (ip), vehicle: saline with Tween-80 112 % of control

COC(=O)c1ccc(C(=O)OC)c(NC(=O)CC(=O)c2ccc([N+](=O)[O-])cc2)c1
inactive: [1] 88 % of control | [2] 101 % of control | [3] 91 % of control | [4] 90 % of control | [5] 91 % of control | [6] 96 % of control

C=C(C)Cc1c(C)c(C)c(OS(=O)(=O)c2ccc(Br)cc2)c(C)c1C
inactive: dose: 50.0 mg/kg/injection, schedule: Q04DX003 (ip), vehicle: gum acacia 89 % of control | dose: 100.0 mg/kg/injection, schedule: Q04DX003 (ip), vehicle: gum acacia 89 % of control | dose: 200.0 mg/kg/injection, schedule: Q04DX003 (ip), vehicle: gum acacia 91 % of control

CC1(C)CCC(N)CC1
inactive: dose: 75.0 mg/kg/injection, schedule: Q01DX001 (ip), vehicle: saline 93 % of control | dose: 150.0 mg/kg/injection, schedule: Q01DX001 (ip), vehicle: saline 95 % of control

O=C(O)c1ccc(OCCCCOc2ccccc2)c(Cl)c1
inactive: [1] 98 % of control | [3] 98 % of control | [5] 95 % of control

COc1ccc([N+](=O)[O-])cc1N
inactive: [2] 101 % of control | [4] 104 % of control | [6] 90 % of control

CC(C)(CNC1=NCCO1)NC1=NCCO1
inactive: dose: 50.0 mg/kg/injection, schedule: Q01DX009 (ip), vehicle: saline 105 % of control | [13] 107 % of control | [14] 103 % of control

CCCCCCCC(=O)CCCC
inactive: [1] 101 % of control | [2] 103 % of control | [3] 98 % of control | [4] 101 % of control | [5] 102 % of control | [6] 101 % of control

CC(C)CCCCCc1ccc(OCCOc2ccc(C(=O)Nc3ccc(S(=O)(=O)F)cc3N)cc2)cc1
inactive: dose: 100.0 mg/kg/injection, schedule: Q01DX009 (ip), vehicle: saline sonified 107 % of control | [2] 98 % of control | dose: 200.0 mg/kg/injection, schedule: Q01DX009 (ip), vehicle: saline sonified 100 % of control | [4] 96 % of control | dose: 400.0 mg/kg/injection, schedule: Q01DX009 (ip), vehicle: saline sonified 98 % of control | [6] 94 % of control

O=C(CCl)Nc1ccc2c(c1)-n1cccc1C2=O
inactive: dose: 25.0 mg/kg/injection, schedule: Q01DX009 (ip), vehicle: Klucel (hydroxypropylcellulose) (HPC) 89 % of control | dose: 50.0 mg/kg/injection, schedule: Q01DX009 (ip), vehicle: Klucel (hydroxypropylcellulose) (HPC) 91 % of control | [1] 86 % of control | [2] 93 % of control | [4] 96 % of control | [6] 100 % of control

C[n+]1ccc2ccccc2c1CCCc1nccc2ccccc12
inactive: dose: 6.25 mg/kg/injection, schedule: Q01DX009 (ip), vehicle: saline with Tween-80 111 % of control | dose: 6.25 mg/kg/injection, schedule: Q04DX003 (ip), vehicle: saline 97 % of control | dose: 12.5 mg/kg/injection, schedule: Q01DX009 (ip), vehicle: saline with Tween-80 117 % of control | dose: 12.5 mg/kg/injection, schedule: Q04DX003 (ip), vehicle: saline 100 % of control | [15] 112 % of control | dose: 25.0 mg/kg/injection, schedule: Q04DX003 (ip), vehicle: saline 114 % of control

N#Cc1oc2ccccc2c1OC(=O)C(F)(F)F
inactive: [9] 100 % of control | [10] 95 % of control

CCOS(=O)(=O)c1ccc([N+](=O)[O-])cc1[N+](=O)[O-]
inactive: [13] 97 % of control | [14] 92 % of control

Cc1cc2nc3[nH]c(=O)c4c(n3c2cc1C)CCC4
inactive: dose: 50.0 mg/kg/injection, schedule: Q04DX002 (ip), vehicle: saline 87 % of control | dose: 100.0 mg/kg/injection, schedule: Q04DX002 (ip), vehicle: saline 108 % of control | dose: 200.0 mg/kg/injection, schedule: Q04DX002 (ip), vehicle: saline 112 % of control

O=C(O)c1cc(O)[nH]c(=O)c1
inactive: [9] 102 % of control | [10] 91 % of control | dose: 400.0 mg/kg/injection, schedule: Q04DX003 (ip), vehicle: saline with Tween-80 94 % of control

CCCC(C)CCCNCCOC(=O)c1cccc(N)c1 (stereo not given)
inactive: [11] 97 % of control | [12] 94 % of control

COc1cc([N+](=O)[O-])ccc1S(=O)(=O)Cl
inactive: [15] 91 % of control | dose: 25.0 mg/kg/injection, schedule: Q04DX002 (ip), vehicle: saline with Tween-80 104 % of control | dose: 25.0 mg/kg/injection, schedule: Q04DX003 (ip), vehicle: saline with Tween-80 97 % of control | dose: 50.0 mg/kg/injection, schedule: Q01DX001 (ip), vehicle: saline with Tween-80 101 % of control | [7] 91 % of control | dose: 50.0 mg/kg/injection, schedule: Q04DX002 (ip), vehicle: saline with Tween-80 93 % of control and 120 % of control | dose: 50.0 mg/kg/injection, schedule: Q04DX003 (ip), vehicle: saline with Tween-80 103 % of control | dose: 100.0 mg/kg/injection, schedule: Q01DX001 (ip), vehicle: saline with Tween-80 92 % of control | [9] 94 % of control | [10] 88 % of control

c1ccc(-c2cc[s+]s2)cc1
inactive: dose: 12.5 mg/kg/injection, schedule: Q01DX009 (ip), vehicle: water 95 % of control | dose: 12.5 mg/kg/injection, schedule: Q04DX003 (ip), vehicle: water 98 % of control | dose: 25.0 mg/kg/injection, schedule: Q01DX009 (ip), vehicle: water 91 % of control | dose: 25.0 mg/kg/injection, schedule: Q04DX003 (ip), vehicle: water 96 % of control | dose: 50.0 mg/kg/injection, schedule: Q01DX009 (ip), vehicle: water 98 % of control | dose: 50.0 mg/kg/injection, schedule: Q04DX003 (ip), vehicle: water 109 % of control
